Row | melting point [°C] | Structure (SMILES)
1 | 73 to 74 | CC(C)OC(=O)c1cc(F)c(F)c(-c2ccc(Cl)cc2)n1
2 | 109 | Cc1ncc(Cn2c(CC3CCN(Cc4ccccc4)CC3)nc3ccccc32)o1
3 | 168 to 170 | CC(C)(C)C(=O)Nc1c(F)cc(F)cc1Oc1ccc(C(C)(C)C(=O)O)cc1
4 | 88 | CCOC(=O)c1c(-c2ccc(C)cc2)nc2ccccn12
5 | 230 to 235 | COc1cc2c(Cl)c(C#N)cnc2cc1NC(C)=O
6 | 193 to 195 | CC(c1oc2ccccc2c(=O)c1-c1cccc(F)c1)n1nc(-c2ccc(O)c(O)c2)c2c(N)ncnc21 (stereo not drawn)
7 | 56 to 56.5 | COc1cc([N+](=O)[O-])c2nccc(C)c2c1OCCCCCCCCCc1ccccc1
8 | 152 to 155 | Cn1ncc(CO)c1-c1ccc(Cl)cc1C(O)c1ccccc1F (stereo not drawn)
9 | 89.2 to 89.7 | O=Cc1ccc(OCc2ccccn2)cc1O
10 | 285 to 294 | O=C(O)c1ccc(CNc2nc(-c3cccnc3)nc3ccccc23)cc1
11 | 190 | O=C(O)c1ccccc1Nc1ccnn1Cc1ccccc1
12 | 128 to 129 | NC(c1ccnc(F)c1)C(O)c1cccc(C(F)(F)F)c1 (stereo not drawn)
13 | 83 | COP(=O)(OC)c1cc(Oc2ccc(C(F)(F)F)cc2Cl)ccc1[N+](=O)[O-]
14 | 130 to 131 | Oc1cc2c(cc1CNc1ccccc1)OCC2
15 | 80 to 81 | COCOc1ccc(Nc2ncccc2[N+](=O)[O-])cc1
16 | 89 to 91 | COC(=O)c1cccc(-c2ccc(OC)c3c2CC(C)(C)O3)c1

Row | melting point [°C] | Structure (SMILES)
17 | 169 to 174 | COc1ccc(Nc2ccnc3nc(C)c(O)cc23)cc1
18 | 140 to 141 | COC(=O)c1c(OC)cccc1C(=O)O
19 | 73 to 75 | CCn1c(-c2ccc(Cl)cc2)nn(C)c1=O
20 | 85 to 87 | COc1ccc2cc(C(=O)C(C)OS(=O)(=O)c3ccc(C)cc3)ccc2c1 (stereo not drawn)
21 | 192 to 194 | COc1ccc2c(c1)CCC1CCNC(=O)C(CC3(C)OCCO3)=C21 (stereo not drawn)
22 | 56 | Cc1ccc(-c2nsc3ccccc23)cc1
23 | 134 to 135 | Cc1occc1C(=O)Nc1ccc(Cl)c(C2OCCO2)c1
24 | 174 to 176 | OC1CCCc2nc3ccccc3c(NCc3ccc(C(F)(F)F)cc3)c21 (stereo not drawn)
25 | 133 to 135 | Cn1cc(-c2cccc(Cl)c2)c(=O)c(-c2cccc(C(F)(F)F)c2)c1
26 | 193 to 196 | Cc1cc(SCc2cccc3nc(-c4ccc(C(F)(F)F)cc4)sc23)ccc1OCC(=O)O
27 | 233 to 235 | Cc1n[nH]c(COc2nn3c(-c4ccccc4)nnc3cc2-c2ccccc2)n1
28 | 138 | CC1C(=O)N(c2ccc(Oc3ccccc3)cc2)C(=S)N1Cc1ccccc1 (stereo not drawn)
29 | 50 to 52 | C=CC(=O)Oc1ccc(N2C(=O)C(=C(C)C)/C(=C(\c3cc(C)oc3C)C(C)C)C2=O)cc1
30 | 207 to 209 | COc1cc(F)ccc1-c1c(/C=C/C(O)CC(=O)O)c2ccccc2c(=O)n1C(C)C (stereo not drawn)
31 | 177 to 178 | C1=c2ccn3c2=C(CC1)c1nncn1-c1ccccc1-3
32 | 125 to 127 | C[Si](C)(C)OC1(c2ccccc2F)C(=O)Nc2ccc(Cl)cc21 (stereo not drawn)

The next lines start with the compound.

Row | Structure (SMILES) | melting point [°C]
33 | CCOC(=O)CCc1[nH]c2cccc3c2c1CC1C3CC(NC(=O)N(CC)CC)CN1C (stereo not drawn) | 160 to 161
34 | Cc1nn(C(C)C)cc1C(=O)NC(C#N)c1cccs1 (stereo not drawn) | 140 to 142
35 | CCOC(=O)C1=C(N)NC(C)=C(C(C)=O)C1c1cccc([N+](=O)[O-])c1 (stereo not drawn) | 217
36 | O=C(O)CCOCC(I)=C(I)I | 115 to 117
37 | COC(=O)[C@@](C)(CCC1=C(C)C(=O)C(C)=C(C)C1=O)OS(C)(=O)=O | 112 to 114
38 | CS(=O)(=O)c1ccc(-c2cccn2-c2ccc3c(c2)OCO3)cc1 | 172 to 175
39 | Cc1ccc(S(=O)(=O)N2CCC[C@H]2C(=O)N2c3ccc(F)c(Cl)c3C(=O)CC2C)cc1 (stereo partly drawn) | 135 to 136
40 | Cn1nnc(-c2[nH]c3ccccc3c2Cl)n1 | 197 to 199
41 | Cc1ccc(C(=O)NCC(O)CO)cc1-n1c(C)cc(OCc2ccccc2CNC(=O)Nc2cc(C(C)(C)C)nn2-c2ccc(Cl)c(O)c2)c(Cl)c1=O (stereo not drawn) | 169 to 171
42 | CC(C)C(C(=O)O)N1C(=O)C2C3C=CC(CC3)C2C1=O (stereo not drawn) | 156
43 | Cc1c([N+](=O)[O-])cc2c(c1C)OC(C)(C)C2=O | 131 to 132
44 | C[C@@H](SC(CO)CO)[C@](O)(Cn1cncn1)c1ccccc1F | 121 to 123
45 | Clc1ccc(C=NN=c2ccn(-c3ccc(Cl)cc3)cc2)cc1 | 165 to 166
46 | COCN1C(C)=C(C(=O)OCc2ccccc2)C(c2cccc(Cl)c2Cl)C(C(=O)OCc2ccccc2)=C1C | 116 to 117
47 | CCCC1=C([N+](=O)[O-])C(c2ccccc2Cl)c2c[nH]nc2N1 (stereo not drawn) | 228
48 | CCCCCCCC(=O)c1ccc(CCO)cc1 | 47.4
49 | NCC1CCN(CCc2ccc(O)cc2)CC1 | 166 to 168
50 | O=C(NC1CCC(O)CC1)C1CC1 (stereo not drawn) | 220 to 222
51 | O=C(O)CCCN(C(=O)c1ccccc1O)C(c1ccccc1)c1ccccc1 | 162 to 163
52 | O=c1[nH]c(=O)n(C2CC(F)C(CO)O2)cc1C(Br)=CI (stereo not drawn) | 107
53 | CCc1c(C(=O)C(N)=O)c2c([N+](=O)[O-])cccc2n1Cc1ccccc1 | 207 to 208

Row | Structure (SMILES) | melting point [°C]
54 | COC(=O)c1c(C)c(OC)cc(O[Si](C)(C)C(C)(C)C(C)C)c1C=O | 69 to 70
55 | O=C(NC1CC1)c1ccccc1SSc1ccccc1C(=O)NC1CC1 | 257 to 259
56 | CCCC1COC(Cn2nc[nH]c2=S)(c2ccc(Cl)cc2Cl)O1 (stereo not drawn) | 128
57 | CN1CCC(c2c[nH]c3ccc(/C=C/C(N)=O)cc23)CC1 | 82 to 83.5
58 | O=S1(=O)N(CCCCBr)c2ccccc2N1c1ccc(Cl)cc1 | 65 to 68
59 | Cc1cn(C2CCN(c3c(F)cc4c(=O)c(C(=O)O)cn(C5CC5)c4c3F)C2)nn1 (stereo not drawn) | 219 to 220
60 | CCCCn1c(-c2ccccc2)nc(Cl)c1CC(=O)O | 189 to 190
61 | CCc1cc(Cl)c(-n2ncc(C#N)c2N)c(Cl)c1 | 189 to 190
62 | CCCCn1c(=O)[nH]c(=O)c2c1ncn2CC(C)=O | 218
63 | CSc1nc2cc(Cl)c(Cl)cc2n1C1OC(CO)C(O)C1O (stereo not drawn) | 204 to 206
64 | Clc1ccc(-c2cc(-c3ccccc3)c(-c3ccccc3)s2)cc1 | 115 to 117
65 | CC(=O)NC[C@H]1CN(c2ccc(-n3cnnc3)c(F)c2)C(=O)O1 | 204 to 206
66 | CCOCc1nc2c(N)nc(C)c(C)c2n1CCCCNS(C)(=O)=O | 165 to 167
67 | CN(C)C(=O)OC1c2ccccc2C(=O)N1c1ccc2ccc(Cl)nc2n1 (stereo not drawn) | 217 to 218
68 | NC(=O)c1cc(C(=O)c2ccccc2)ccc1[N+](=O)[O-] | 244
69 | CCOC(=O)c1cn2c3c(cc(I)cc3c1=O)N(C)C(=O)C2 | 278 to 283
70 | CC1(O)CC(=O)OC(CCc2ccc(Cl)cc2)C1 (stereo not drawn) | 61 to 64
71 | CCCCS(=O)(=O)c1c(-c2ccccc2)nn(C)c1-c1ccccc1 | 92.5 to 93
72 | O=[N+]([O-])c1cccc(-c2ccc3[nH]c(=S)n(Cc4ccccc4)c3c2)c1 | 244 to 245
73 | N#Cc1ccc2c(c1)nc1n2CCC(=O)N1 | > 340

From a melting point compilation (Tetko et al.; mined from patent text by program, amines drawn as free bases though some values may be those of a salt)
